Measurements taken from patent US6610502B1, “Compound 2-amino-3-[2-(α-mannopyranosyl)indol-3-yl]propionic acid, process for preparing the same, and method for inspecting function of living body with the novel compound” (Kyowa Medex Co., Ltd., priority 1997, dated 2003).

Assay: Assay of excreted amount in urine: the present compound by enzyme immunoassay (Example 9)
Type: in vivo, human
Conditions: healthy persons
Procedure: Enzyme immunoassay was performed using the antibody prepared in Example 6. First, 50 μl of 2-amino-3-[2-(α-D-mannopyranosyl)indole-3-yl]propionic acid-BSA conjugate solution (20 μg/ml 0.1M carbonate buffer, pH9.5) was dispensed into a 96-well microtiter plate (NUNC. Corp.) and left to stand at 4° C. overnight. After washing the plate three times with PBS, 250 μl of 1% BSA/PBS solution was dispensed into the plate and left to stand at room temperature for 1 hour. Then, the plate was washed three times with PBS to be used as a reaction plate. Next, 50 μl of a test sample diluted with 0.1M phosphate buffer (pH 7.4) supplemented with varied concentrations of 2-amino-3-[2-(α-D-mannopyranosyl)indole-3-yl]propionic acid/0.1%BSA or 0.1M phosphate buffer supplemented with 0.1% BSA (pH7.4) was dispensed into the reaction plate into which 50 μl of the monoclonal antibody prepared in Example 6 (10 ng/ml, 0.1M phosphate buffer solution supplemented with 0.1% BSA, pH7.4) was added while stirring. The mixture was allowed to react at room temperature for 3 hours. Then, after the reaction was completed, the plate was washed five times with PBS containing 0.05% Tween 20, and then 50 μl of POD labeled-anti-mouse immunoglobulins-rabbit IgG (DAKO) was added to the plate for reaction at room temperature for 1 hour. After the reaction, the plate was washed five times with PBS containing 0.05% Tween 20, added with 50 μl of MCDP/50 mM citrate buffer solution (pH5.0), and the mixture was allowed to react at room temperature for 30 minutes. Finally, 50 μl of a reaction stopper (ethyl diethyldithiocarbamate) was added to the plate, and absorbance was then determined at 660 nm by a microplate reader. The calibration curve is shown in FIG. 5 in which the concentration of 2-amino-3-[2-(α-D-mannopyranosyl)indole-3-yl]propionic acid was indicated as a concentration of single compound.
Healthy persons (male and female, from newborn to 90 year-old) were assayed for levels of 2-amino-3-[2-(α-mannopyranosyl)indole-3-yl]propionic acid in their urine as described in Example 7, to evaluate the usefulness of the method of the present invention for measurement of renal functions. Urine samples stored for 24 hours were pooled, their volumes were determined, and then partially stored at −80° C. until use. Upon use, the frozen urine samples were thawed and kept warm at 37° C. Subsequently, after sufficient stirring and mixing, the samples were centrifuged at 3000 rpm for 10 minutes to remove impurities. The resultant supernatants were used as samples. As a comparative example, creatinine levels in the same test samples were assayed.

SMILES: NC(Cc1c([C@H]2O[C@H](CO)[C@@H](O)[C@H](O)[C@@H]2O)[nH]c2ccccc12)C(=O)O (stereo partly drawn) [the present compound, 2-amino-3-[2-(α-mannopyranosyl)indole-3-yl]propionic acid]
- excreted amount in urine, average (female, age 0-10): 4111 µg/day
- excreted amount in urine, average (female, age 0-90): 4507 µg/day
- excreted amount in urine, average (female, age 10-30): 4520 µg/day
- excreted amount in urine, average (female, age 30-50): 4824 µg/day
- excreted amount in urine, average (female, age 50-70): 4412 µg/day
- excreted amount in urine, average (female, age 70-90): 4666 µg/day
- average excretion amount per day (male and female, all ages): 4.5 mg/day
- excreted amount in urine, average (male, age 0-10): 4095 µg/day
- excreted amount in urine, average (male, age 0-90): 4488 µg/day
- excreted amount in urine, average (male, age 10-30): 4581 µg/day
- excreted amount in urine, average (male, age 30-50): 4498 µg/day
- excreted amount in urine, average (male, age 50-70): 4647 µg/day
- excreted amount in urine, average (male, age 70-90): 4622 µg/day
